Legend:
MDR cells = details: in vitro and in vivo; Cancer Res., 41, 1967-1972 (1981); cited from earlier work
AR 1.0 cells [1] = assay: Drug accumulation assay (tritiated daunorubicin, AR 1.0 cells); type: cell-based, mouse; details: Mus musculus, 1 h, daunorubicin accumulation, 37° C., DNR 2 μM
Procedure: (§1) The EMT6 mouse mammary carcinoma cell line and the MDR resistant subline AR 1.0 were cultured in RPMI 1640 medium containing 10% foetal calf serum and 2mM glutamine at 37° C. in 5% CO2. Cells were passaged between 1 in 200 and 1 in 2000 in the case of the parental cell line and between 1 in 20 and 1 in 200 in the case of the MDR resistant subline, after trypsinisation (0.25% trypsin, 0.2 gl^-1, EDTA).
1. Drug accumulation assay
AR 1.0 cells were seeded into 96 well opaque culture plates (Canberra Packard). The assay medium contained a mixture of tritiated Daunorubicin (DNR), a cytotoxic agent, and unlabelled DNR (0.25μ Ci/ml; 2 μM). Compounds of formula A were serially diluted in assay medium over a range of concentrations from 100 nM to 100 μM. The cells were incubated at 37° C. for 1 hr before washing and counting of cell associated radioactivity. Each assay included a titration of the known resistance modifying agent Verapamil as positive control. Results were expressed as % maximum accumulation where 100% accumulation is that observed in the presence of 100 μM Verapamil.

AR 1.0 cells [2] = assay: Potentiation of Doxorubicin toxicity (potentiation index, AR 1.0 cells); type: cell-based, mouse; details: doxorubicin 0.5 nM-50 μM, four days
Procedure: as §1
2. Potentiation of Doxorubicin toxicity
Compounds of formula A were examined for their ability to potentiate the toxicity of doxorubicin in AR 1.0 cells. In initial proliferation assays compounds were titrated against a fixed concentration of doxorubicin (0.5-1 μM) which alone is non-toxic to AR 1.0 cells. Incubations with doxorubicin were over a four day period before quantitation of proliferation using the calorimetric sulphorhodamine B assay (Skehan et al; J. Natl. Cancer Inst. 82 pp 1107-1112 (1990)).
Cells were cultured for four days with concentrations of doxorubicin over the range of 0.5 nM-50 μM in the presence of Verapramil at its maximum subtoxic level determined from previous experiments. Proliferation was quantified as described by Skehan et al, loc cit. The IC50 (concentration required to reduce proliferation to 50% of the untreated controls) for doxorubicin alone and with the Verapamil were derived and used to calculate the potentiation index (PI): […]

AR 1.0 cells [3] = assay: Proliferation/toxicity assay, compound alone and with cytotoxic agent (sulphorhodamine B); type: cell-based, mouse
[4] = Kamei et al, J. Antibiotics vol XLIII No. 8, 1018-1020; cited from earlier work

For `COc1ccc(CCN(C)CCCC(C#N)(c2ccc(OC)c(OC)c2)C(C)C)cc1OC` (stereo not shown) [Verapamil], the “sensitisation of MDR cells to vinca alkaloids” value (MDR cells) is given as “shown to sensitise MDR cells to vinca alkaloids in vitro and in vivo”.

With `O=c1[nH]/c(=C\c2ccncc2)c(=O)n(Cc2ccccc2)/c1=C\c1ccccc1` [Compound 1839, (3Z,6Z)-1-Benzyl-6-benzylidene-3-(4-pyridyl)methylene-2,5-piperazinedione] the IC50 (AR 1.0 cells [1]) was 20 µM, the “Potentiation Index” value (AR 1.0 cells [2]; Conc Comp 3 μM) was 15 and the IC50 (AR 1.0 cells [3]; compound alone, read-out: COMPOUND TOXICITY (IC50 μM)) was 30 µM. The IC50 (AR 1.0 cells [3]; cytotoxic agent (doxorubicin) 0.50 μg/ml, 5760 min, read-out: TOXICITY WITH CYTOTOXIC AGENT (IC 50 μM)) was 1.5 µM.

With `Cn1c(=O)/c(=C/c2cn(C(=O)OC(C)(C)C)c3ccccc23)n(C)c(=O)/c1=C/c1ccccc1` [Compound 1800, (3Z,6Z)-3-Benzylidene-1,4-dimethyl-6-(1-tert-butoxycarbonyl-3-indolyl)methylene-2,5-piperazinedione] the IC50 (AR 1.0 cells [1]) was 7 µM, the “Potentiation Index (at 5 μM)” value (AR 1.0 cells [2]; Conc Comp 5 μM) was 40 and the IC50 (AR 1.0 cells [3]; Mus musculus, compound alone, read-out: COMPOUND TOXICITY (IC50 μM)) was 10 µM. It also gave an IC50 (AR 1.0 cells [3]; cytotoxic agent (doxorubicin) 1.00 μg/ml, 5760 min, read-out: TOXICITY WITH CYTOTOXIC AGENT (IC 50 μM)) of 0.8 µM.

In the case of `O=c1[nH]/c(=C\c2ccccc2)c(=O)[nH]/c1=C\c1ccccc1` [B], the “potentiation of the cytotoxicity of vincristine” value [4] is listed as “have utility as potentiators of the cytotoxicity of vincristine”.
